Results published in ChEMBL document CHEMBL1201862, “PubChem BioAssay data set” (2004).
pEC50: −log10 of the molar value. Where “and” joins values, the source holds several entries; their conditions need not be identical. Equal values may be shown once. Calls of active or inactive are those of the source. Unless noted, the rule behind the calls is not given here.

Key:
Melanocortin receptor 4 = Melanocortin receptor 4 (Homo sapiens, UniProt P32245); experiment: inhibitors of MC4R cAMP signaling – cell-based, TR-FRET, biased antagonists, dose response (AID 602298); assay type: functional;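 also: antagonist potency against agonist-stimulated cAMP production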
[1] = cytotoxicity in U-251 glioma cells – cell-based, CellTiter-Glo ATP luminescence, several timepoints, dry powder, mechanism study for HRAS target identification, late-stage follow-up (AID 720616); assay type: functional
[2] = cytotoxicity in primary human umbilical endothelium – cell-based, CellTiter-Glo ATP luminescence, 8/24/48 h, dry powder, cytotoxicity control for HRAS target identification, dose response (AID 720604); assay type: functional; conditions: HUVEC
[3] = cytotoxicity in mouse C2C12 myoblasts – cell-based, CellTiter-Glo ATP luminescence, 8/24/48 h, dry powder, cytotoxicity control for HRAS target identification, dose response (AID 720603); assay type: functional
INS1 = experiment: INS-1E survival protection against cytokine death – cell-based, luminescence, retest, dose response (AID 449756); assay type: functional; conditions: Rattus norvegicus;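 also: cell death triggered by IL-1 beta plus TNF-alpha plus IFN-gamma mixture; protective hits raise ATP signal compared with cytokine alone wells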
Fatty acid synthase [4] = target: T1, Fatty acid synthase (Homo sapiens, UniProt P49327); experiment: inhibition of human FAS-TE enzyme activity – biochemical, kinetic fluorescence intensity, dose response (AID 624326); assay type: functional;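 also: rate of fluorescence rise from hydrolysis of a fluorogenic O-methyl fluorescein ester substrate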
[5] = viability of PTEN-deleted HCT116 cells – cell-based, HCT116 PTEN knockout, dose response (AID 1047); assay type: functional;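 also: HCT116 colon tumor cells with PTEN knocked out; cells exposed to compound for 60 hours before readout; potency for loss of cell viability measured by luminescence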
[6] = general cell-killing toxicity readout – plate reader, dry powder samples, cytotoxicity control for PAX8 inhibitor project, dose response (AID 743021); assay type: functional, cell-based
[7] = BJeH cell viability loss – BJeH cells, dry powder, counter-screen for Ras selective lethality project, dose response (AID 493054); assay type: functional, cell-based
[8] = viability of HCT116 lacking mutant beta-catenin – cell-based, human colon tumor, dose response (AID 1045); assay type: functional;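 also: HCT116 colon tumor cells with beta catenin knocked out; cells exposed to compound for 60 hours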
[9] = cAMP pathway inhibition in counterscreen cell line – TR-FRET cAMP detection, counter-screen for MC4R biased antagonist project, dose response (AID 602305); assay type: functional, cell-based;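 also: U2OS cells stimulated with forskolin near its EC80 as the cAMP inducer; potency is for inhibition of forskolin-stimulated cAMP signaling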
[10] = cytotoxicity in LOX IMVI melanoma cells – cell-based, CellTiter-Glo ATP luminescence, 8/24/48 h, dry powder, HRAS target identification, dose response (AID 720602); assay type: functional
[11] = cytotoxicity in SR immunoblastic lymphoma cells – cell-based, CellTiter-Glo ATP luminescence, 8-48 h, dry powder, mechanism study for HRAS target identification, late-stage follow-up (AID 720608); assay type: functional
[12] = cytotoxicity in CCRF-CEM lymphoblastic leukemia cells – cell-based, CellTiter-Glo ATP luminescence, 8/24/48 h, dry powder, HRAS target identification, dose response (AID 720607); assay type: functional
[13] = DRD BJ cell killing, Ras synthetic lethality – DRD BJ fibroblasts, HRASV12, dry powder, dose response (AID 493049); assay type: functional, cell-based
[14] = BJeHLT cell viability loss – BJeHLT cells, dry powder, counter-screen for Ras selective lethality project, dose response (AID 493052); assay type: functional, cell-based; conditions: Homo sapiens
Protein RecA = target: T2, Protein RecA (Mycobacterium tuberculosis, UniProt P9WHJ3); experiment: Fluorescence Cell-Free Homogeneous Dose Retest to Identify Inhibitors of RecA-Intein Splicing Activity. [Related pubchem assays (depositor defined):AID2097, AID2223, AID489010, AID492950]; assay type: functional
T2 sequence (P9WHJ3 whole entry): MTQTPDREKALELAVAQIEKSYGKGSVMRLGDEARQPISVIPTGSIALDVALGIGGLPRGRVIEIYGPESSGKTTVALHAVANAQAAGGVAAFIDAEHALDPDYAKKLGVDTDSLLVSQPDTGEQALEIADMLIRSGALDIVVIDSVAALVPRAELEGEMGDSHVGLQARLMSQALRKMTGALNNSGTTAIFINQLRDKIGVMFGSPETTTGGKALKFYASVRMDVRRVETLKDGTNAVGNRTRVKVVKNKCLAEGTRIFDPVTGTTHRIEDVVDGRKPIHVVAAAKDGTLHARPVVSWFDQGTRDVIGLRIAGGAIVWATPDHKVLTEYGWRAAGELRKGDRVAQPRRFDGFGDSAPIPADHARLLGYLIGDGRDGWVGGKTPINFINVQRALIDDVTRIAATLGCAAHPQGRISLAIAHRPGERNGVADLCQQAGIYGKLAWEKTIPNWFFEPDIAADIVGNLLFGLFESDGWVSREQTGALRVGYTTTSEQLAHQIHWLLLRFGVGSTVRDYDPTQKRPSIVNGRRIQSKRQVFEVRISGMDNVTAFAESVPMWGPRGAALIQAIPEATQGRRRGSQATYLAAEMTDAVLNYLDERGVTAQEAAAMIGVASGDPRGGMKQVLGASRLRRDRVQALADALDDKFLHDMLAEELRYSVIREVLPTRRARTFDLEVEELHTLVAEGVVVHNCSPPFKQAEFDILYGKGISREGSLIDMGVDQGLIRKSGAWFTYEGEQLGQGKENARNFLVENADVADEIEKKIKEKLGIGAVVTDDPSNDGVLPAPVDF

BJ = experiment: growth inhibition of engineered Ras-driven BJ cells – cell-based, alamar blue fluorescence, cherrypicked samples, dose response (AID 2631); assay type: functional; conditions: Homo sapiens;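 also: confirmatory dose-response assay in RAS-dependent BJ fibroblasts engineered with TERT, LT and ST, with cytotoxicity read by fluorescence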
Paired box protein Pax-8 = Paired box protein Pax-8 (Homo sapiens, UniProt Q06710); experiment: PAX8 transcriptional activity inhibition in RMG-I – RMG-I cells, luciferase, cherry-pick, dose response (AID 687027); assay type: functional, cell-based;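 also: luciferase reporter driven by Pax8 target thyroperoxidase promoter measured by SteadyGlo luminescence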
[15] = target: T3, Replicative DNA helicase DnaB (Mycobacterium tuberculosis, UniProt P9WMR3); experiment: DnaB intein splicing inhibitors, dose response, biochemical, cell-free fluorescence (AID 449749); assay type: functional
T3 sequence (P9WMR3 whole entry): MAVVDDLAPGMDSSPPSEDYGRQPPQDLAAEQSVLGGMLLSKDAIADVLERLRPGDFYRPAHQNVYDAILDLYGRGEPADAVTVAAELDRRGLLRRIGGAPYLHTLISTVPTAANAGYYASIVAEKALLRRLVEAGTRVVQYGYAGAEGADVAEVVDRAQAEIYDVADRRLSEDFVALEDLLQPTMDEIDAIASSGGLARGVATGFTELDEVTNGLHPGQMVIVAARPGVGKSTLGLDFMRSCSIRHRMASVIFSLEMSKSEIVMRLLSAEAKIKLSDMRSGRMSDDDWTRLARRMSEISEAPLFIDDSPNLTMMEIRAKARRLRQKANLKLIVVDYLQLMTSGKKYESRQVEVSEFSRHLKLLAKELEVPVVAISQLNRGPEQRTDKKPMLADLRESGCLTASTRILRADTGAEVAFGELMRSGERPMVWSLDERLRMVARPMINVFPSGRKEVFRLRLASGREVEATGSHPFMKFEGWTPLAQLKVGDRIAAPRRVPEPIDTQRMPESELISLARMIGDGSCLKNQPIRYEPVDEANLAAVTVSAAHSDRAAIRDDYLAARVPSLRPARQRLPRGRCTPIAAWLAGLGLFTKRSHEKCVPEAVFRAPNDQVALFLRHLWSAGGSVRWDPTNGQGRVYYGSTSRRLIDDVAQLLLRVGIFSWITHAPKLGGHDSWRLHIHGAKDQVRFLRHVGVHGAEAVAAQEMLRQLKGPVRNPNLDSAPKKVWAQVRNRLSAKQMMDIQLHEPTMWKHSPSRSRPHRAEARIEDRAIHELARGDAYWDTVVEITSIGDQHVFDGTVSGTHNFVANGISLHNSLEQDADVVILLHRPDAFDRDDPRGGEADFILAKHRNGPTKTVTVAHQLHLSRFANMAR

[16] = HRAS-V12 fibroblast viability reduction – cell-based, Alamar Blue, dry powder, Ras selective lethality project, primary screen (AID 493045); assay type: functional; conditions: BJeLR
[17] = cytotoxicity in SNB-19 cells – cell-based, CellTiter-Glo ATP luminescence, 8-48 h, dry powder, mechanism study for HRAS target identification, late-stage follow-up (AID 720611); assay type: functional
[18] = cytotoxicity in HeLa cervical cancer cells – cell-based, CellTiter-Glo ATP luminescence, 8-48 h, dry powder, mechanism study for HRAS target identification, late-stage follow-up (AID 720609); assay type: functional
[19] = cytotoxicity in U-251 CNS tumor cells – cell-based, Alamar Blue fluorescence, 8/24/48 h, dry powder, HRAS target identification, dose response (AID 720605); assay type: functional
[20] = time-course viability loss in HT-29 cells – cell-based, CellTiter-Glo, multiple timepoints, dry powder, HRas target identification project, dose response (AID 720598); assay type: functional
Fatty acid synthase [21] = target: T1, Fatty acid synthase; experiment: inhibition of human FAS-TE enzyme activity – biochemical, endpoint fluorescence intensity, uHTS hits, dose response (AID 624327); assay type: functional;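 also: fluorescence from hydrolysis of an O-methyl fluorescein acyl ester substrate by the enzyme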
[22] = target: T4, Kappa-type opioid receptor (Homo sapiens, UniProt P41145); assay type: functional
Mu-type opioid receptor = Mu-type opioid receptor (Homo sapiens, UniProt P35372); experiment: HTS Image-Based Screen for Agonists of the MOR Receptor. [Related pubchem assays (depositor defined):AID1777, AID1785, AID1786, AID2133]; assay type: functional;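 also: imaging of beta-arrestin GFP recruitment into spots after receptor activation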
[23] = target: T5, Delta-type opioid receptor (Homo sapiens, UniProt P41143); experiment: HTS Image-Based Screen for Agonists of the DOR Receptor. [Related pubchem assays (depositor defined):AID1777, AID1786, AID2133]; assay type: functional
[24] = target: T4, Kappa-type opioid receptor; assay type: functional; remark: listed apart in the source
Estrogen receptor = Estrogen receptor (Homo sapiens, UniProt P03372);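 also: potency for inhibiting coactivator peptide recruitment to the receptor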
Estrogen receptor beta [25] = target: T6, Estrogen receptor beta (Homo sapiens, UniProt Q92731);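 also: recombinant ER-beta bound to coactivator SRC1 peptide in presence of estradiol agonist; inhibitors block coactivator peptide binding and lower the FRET signal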
Estrogen receptor beta [26] = target: T6, Estrogen receptor beta; experiment: blockers of SRC-3 recruitment to ERβ – biochemical, ELISA, streptavidin-HRP readout, orthogonal assay, confirmation (AID 1060)
[27] = target: T5, Delta-type opioid receptor; experiment: HTS Image-Based Screen for Antagonists of the DOR Receptor. [Related pubchem assays (depositor defined):AID1777, AID1785, AID1786, AID2133]; assay type: functional
[28] = target: G-protein coupled receptor 35 (Homo sapiens, UniProt Q9HC97); experiment: SAR analysis of Antagonists of the GPR35 Receptor using an Image-Based Assay - Set 5. [Related pubchem assays (depositor defined):AID2058, AID2079]; assay type: functional
[29] = target: G-protein coupled receptor 55 (Homo sapiens, UniProt Q9Y2T6); experiment: SAR Analysis of Selective Antagonists of GPR55 using an Image-Based Assay - Set 3. [Related pubchem assays (depositor defined):AID2058, AID2079]; assay type: functional
J774.A1 = experiment: Confirmation of image-based Screening Assay for Inhibitors of Phagocytosis. [Related pubchem assays (depositor defined):AID1029, AID1643]; assay type: functional, cell-based; conditions: Mus musculus
[30] = HEK-293T viability loss after treatment – luminescence, T-cell screen hits, cytotoxicity control for TCR NF-kB inhibitor project, dose response (AID 489026); assay type: functional, cell-based;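 also: cells exposed to compound about 14 hours before the viability readout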
HEK293 [31] = experiment: cells; conditions: Homo sapiens
HEK293 [32] = experiment: cells; conditions: Homo sapiens; remark: listed apart in the source
[33] = target: DNA dC->dU-editing enzyme APOBEC-3A (Homo sapiens, UniProt P31941); experiment: A3A deaminase inhibition for selectivity – biochemical, dose response (AID 504722); assay type: functional
Troponin, cardiac muscle = Troponin, cardiac muscle (Homo sapiens, UniProt P19429+P45379+P63316); experiment: Fluorescence-based biochemical high throughput dose response assay for activators of the calcium sensitivity of cardiac Regulated Thin Filaments (RTF). [Related pubchem assays (depositor defined):AID493008, AID493018, AID504382, AID504383]; assay type: protein-complex assay
[34] = target: DNA dC->dU-editing enzyme APOBEC-3G (Homo sapiens, UniProt Q9HC16); experiment: Dose Response confirmation of small molecule APOBEC3G DNA Deaminase Inhibitors via a fluorescence-based single-stranded DNA deaminase assay. [Related pubchem assays (depositor defined):AID493012, AID493028]; assay type: functional
Large T antigen = Large T antigen (Simian virus 40, UniProt P03070); assay type: functional, Betapolyomavirus macacae;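 also: Confirmatory-stage PubChem screen for compounds that inhibit SV40 T antigen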

COc1ccc(N(C(=O)CCl)C(C(=O)NCCc2ccccc2)c2cccs2)cc1Cl (centres undefined)
IC50 (Melanocortin receptor 4): > 64.6 µM (inactive)
AC50 [1]: 0.941 µM (active)
AC50 [2]: 12 µM (active)
AC50 [3]: 6.07 µM (active)
AC50 (INS1): 2.82 µM (active)
IC50 (Fatty acid synthase [4]): 10.6 µM (active)
EC50 [5]: 1.48 µM (active)
AC50 [6]: 2.16 µM (active)
AC50 [7]: 0.76 µM (active)
EC50 [8]: 0.765 µM (active)
IC50 [9]: > 64.6 µM (inactive)
AC50 [10]: 0.0563 µM (active)
AC50 [11]: 0.0694 µM (active)
AC50 [12]: 0.133 µM (active)
AC50 [13]: 0.232 µM (active)
AC50 [14]: 0.847 µM (active)
EC50 (Protein RecA): 0.24 µM (active)
EC50 (BJ): 0.167 µM (active)
AC50 (Paired box protein Pax-8): 0.323 µM (active)
AC50 [15]: 1.82 µM (active)
AC50 [16]: 0.249 µM (active)
AC50 [17]: 1.18 µM (active)
AC50 [18]: 0.582 µM (active)
AC50 [19]: 0.0572 µM (active)
AC50 [20]: 0.296 µM (active)
IC50 (Fatty acid synthase [21]): 10.2 µM (active)

N#Cc1ccc(-c2cccnc2)nc1SCC(=O)Nc1sc2c(c1C#N)CCC2
pEC50 [22]: < 4.46
EC50 (Mu-type opioid receptor): > 32 µM (inactive)
EC50 [23]: > 32 µM (inactive)
pEC50 [24]: 4.80
IC50 (Estrogen receptor): 15 µM (active)
IC50 (Estrogen receptor beta [25]): > 50 µM (not active)
IC50 (Estrogen receptor beta [26]): 3.69 µM (not active) and 149 nM (not active)
IC50 [27]: > 32 µM (inactive)

COc1ccc(-c2n[nH]cc2/C=N/NC(=S)NC(C)(C)C)cc1
IC50 [28]: > 32 µM (inactive)
IC50 [29]: 16.4 µM (inactive)

Cc1ccc(C(=O)Nc2ncc(Cc3ccc(SC(F)F)cc3)s2)cc1
IC50 (J774.A1): 1.75 µM (active)
IC50 [30]: > 80 µM (inactive)
EC50 (HEK293 [31]): > 59.7 µM (inactive)
EC50 (HEK293 [32]): > 59.7 µM (inactive)

Cc1cccc(/C=N/n2c(S)nnc2-c2ccncc2)c1
IC50 [33]: > 100 µM (inactive)
EC50 (Troponin, cardiac muscle): > 71.5 µM (inactive)
IC50 [34]: 2.62 µM (active)
IC50 (Large T antigen): 43.7 µM (active)
